Common to all, as to type: functional
The test system of test [1] is Staphylococcus epidermidis. Kind of test: Antibacterial activity against macrolides, lincosamides, streptogramin B and methicillin-resistant Staphylococcus epidermidis 1105-00 assessed as growth inhibition.
In test [2] the test system is Staphylococcus aureus. Kind of test: Antibacterial activity against macrolides, lincosamides, streptogramin B and methicillin-resistant Staphylococcus aureus 1015-00 assessed as growth inhibition.
The test system of a further test is Streptococcus pyogenes. Briefly: Antibacterial activity against macrolides, lincosamides, and streptogramin B-resistant Streptococcus pyogenes 1304-00 assessed as growth inhibition.
For test [3], the system named is Staphylococcus aureus. Briefly: Antibacterial activity against Staphylococcus aureus ATCC 29213 assessed as growth inhibition.
Test [4] has as its system Staphylococcus aureus. Briefly: Antibacterial activity against methicillin-resistant Staphylococcus aureus 1281-07 harboring cfr gene assessed as growth inhibition.
For test [5], the system named is Staphylococcus aureus. Briefly: Antibacterial activity against methicillin-resistant Staphylococcus aureus 1279-07-USA300 assessed as growth inhibition.
The test system of the next test is Streptococcus pneumoniae. Briefly: Antibacterial activity against macrolides, lincosamides, and streptogramin B-resistant Streptococcus pneumoniae 1243-00 assessed as growth inhibition.
For test [6], the system named is Staphylococcus aureus. Kind of test: Antibacterial activity against macrolides, lincosamides, streptogramin B and methicillin-resistant Staphylococcus aureus 1609-09 harboring cfr gene assessed as growth inhibition.
Test [7] relates to Staphylococcus aureus. Briefly: Antibacterial activity against methicillin-resistant Staphylococcus aureus 2111-10-USA300 harboring cfr gene assessed as growth inhibition.
For test [8], the system named is Staphylococcus aureus. Kind of test: Antibacterial activity against methicillin-resistant Staphylococcus aureus 1279-07 harboring cfr gene assessed as growth inhibition.

≈ marks a conversion by molar mass, not a printed value.

On to `CC[C@H]1OC(=O)[C@H](C)[C@@H](OC(=O)N2CC(C)(C)C[C@@H]2c2ccccc2Cl)[C@H](C)[C@@H](O[C@@H]2O[C@H](C)C[C@H](N(C)C)[C@H]2O)[C@](C)(OC)C[C@@H](C)C(=O)[C@H](C)[C@H]2NC(=O)O[C@@]21C`, for which the MIC amounted to 64 µg/mL (≈ 75.3 µM) in test [1]; 64 µg/mL (≈ 75.3 µM) in the test with Staphylococcus aureus [2]; 0.25 µg/mL (≈ 0.294 µM) with Streptococcus pyogenes; 0.25 µg/mL (≈ 0.294 µM) with Staphylococcus aureus [3]; 0.25 µg/mL (≈ 0.294 µM) with Staphylococcus aureus [4]; 2 µg/mL (≈ 2.35 µM) in the test on Staphylococcus aureus [5]. Moreover, the MIC is 0.25 µg/mL (≈ 0.294 µM) in the test on Streptococcus pneumoniae, 64 µg/mL (≈ 75.3 µM) in the test on Staphylococcus aureus [6], 0.25 µg/mL (≈ 0.294 µM) in the test on Staphylococcus aureus [7] and 0.25 µg/mL (≈ 0.294 µM) in the test on Staphylococcus aureus [8].
Turning to `CC[C@H]1OC(=O)[C@H](C)[C@@H](OC(=O)N2CC(C)(C)C[C@@H]2c2cccc(Cl)c2)[C@H](C)[C@@H](O[C@@H]2O[C@H](C)C[C@H](N(C)C)[C@H]2O)[C@](C)(OC)C[C@@H](C)C(=O)[C@H](C)[C@H]2NC(=O)O[C@@]21C`, the MIC in test [1] was 64 µg/mL (≈ 75.3 µM); in the test on Staphylococcus aureus [2], more than 64 µg/mL; in the test on Streptococcus pyogenes, 0.03 µg/mL (≈ 0.0353 µM); in the test on Staphylococcus aureus [3], 0.25 µg/mL (≈ 0.294 µM); with Staphylococcus aureus [4], 0.125 µg/mL (≈ 0.147 µM); with Staphylococcus aureus [5], 0.25 µg/mL (≈ 0.294 µM). For the same compound, the minimum inhibitory concentration (MIC) in the test on Streptococcus pneumoniae was 0.03 µg/mL (≈ 0.0353 µM); with Staphylococcus aureus [6], more than 64 µg/mL; in the test with Staphylococcus aureus [7], 0.25 µg/mL (≈ 0.294 µM); in the test with Staphylococcus aureus [8] it was 0.25 µg/mL (≈ 0.294 µM).
`CC[C@H]1OC(=O)[C@H](C)[C@@H](OC(=O)N2CC(C)(C)C[C@@H]2c2cccc3c2OCO3)[C@H](C)[C@@H](O[C@@H]2O[C@H](C)C[C@H](N(C)C)[C@H]2O)[C@](C)(OC)C[C@@H](C)C(=O)[C@H](C)[C@H]2NC(=O)O[C@@]21C`: the MIC was determined as 16 µg/mL (≈ 18.6 µM) in test [1]; 64 µg/mL (≈ 74.4 µM) with Staphylococcus aureus [2]; 0.03 µg/mL (≈ 0.0349 µM) with Streptococcus pyogenes; 0.125 µg/mL (≈ 0.145 µM) in the test on Staphylococcus aureus [3]; 0.125 µg/mL (≈ 0.145 µM) in the test with Staphylococcus aureus [4]; 0.5 µg/mL (≈ 0.581 µM) in the test with Staphylococcus aureus [5]. Further, the MIC in the test with Streptococcus pneumoniae is 0.03 µg/mL (≈ 0.0349 µM); in the test on Staphylococcus aureus [6], more than 64 µg/mL; with Staphylococcus aureus [7] it was 0.125 µg/mL (≈ 0.145 µM); with Staphylococcus aureus [8], 0.125 µg/mL (≈ 0.145 µM).
As to `CC[C@H]1OC(=O)[C@H](C)[C@@H](OC(=O)N2CC(C)(C)C[C@@H]2c2ccc3c(c2)OCO3)[C@H](C)[C@@H](O[C@@H]2O[C@H](C)C[C@H](N(C)C)[C@H]2O)[C@](C)(OC)C[C@@H](C)C(=O)[C@H](C)[C@H]2NC(=O)O[C@@]21C`, the MIC is more than 64 µg/mL in [1]; more than 64 µg/mL with Staphylococcus aureus [2]; 2 µg/mL (≈ 2.33 µM) in the test on Streptococcus pyogenes; 0.25 µg/mL (≈ 0.291 µM) in the test with Staphylococcus aureus [3]; 0.25 µg/mL (≈ 0.291 µM) in the test on Staphylococcus aureus [4]; 4 µg/mL (≈ 4.65 µM) with Staphylococcus aureus [5]. Also, the MIC in the test on Streptococcus pneumoniae was 0.5 µg/mL (≈ 0.581 µM); in the test with Staphylococcus aureus [6], more than 64 µg/mL; with Staphylococcus aureus [7], 0.25 µg/mL (≈ 0.291 µM); in the test with Staphylococcus aureus [8], 0.25 µg/mL (≈ 0.291 µM).
On to `CC[C@H]1OC(=O)[C@H](C)[C@@H](OC(=O)N2CC(C)(C)C[C@@H]2c2cccnc2)[C@H](C)[C@@H](O[C@@H]2O[C@H](C)C[C@H](N(C)C)[C@H]2O)[C@](C)(OC)C[C@@H](C)C(=O)[C@H](C)[C@H]2NC(=O)O[C@@]21C`, for which the MIC in test [1] is 16 µg/mL (≈ 19.6 µM); in the test on Staphylococcus aureus [2] it was more than 64 µg/mL; with Streptococcus pyogenes, 0.03 µg/mL (≈ 0.0367 µM); with Staphylococcus aureus [3], 4 µg/mL (≈ 4.9 µM); in the test on Staphylococcus aureus [5] it was more than 64 µg/mL; in the test on Streptococcus pneumoniae it was 0.03 µg/mL (≈ 0.0367 µM). Further, the MIC in the test on Staphylococcus aureus [6] is more than 64 µg/mL.
For the compound `CC[C@H]1OC(=O)[C@H](C)[C@@H](OC(=O)N2CCC[C@@H]2c2cccnc2)[C@H](C)[C@@H](O[C@@H]2O[C@H](C)C[C@H](N(C)C)[C@H]2O)[C@](C)(OC)C[C@@H](C)C(=O)[C@H](C)[C@H]2NC(=O)O[C@@]21C`, the MIC in test [1] was more than 64 µg/mL; in the test with Staphylococcus aureus [2], more than 64 µg/mL; in the test with Streptococcus pyogenes, 0.5 µg/mL (≈ 0.634 µM); in the test on Staphylococcus aureus [3], 0.25 µg/mL (≈ 0.317 µM); in the test on Staphylococcus aureus [4], 0.125 µg/mL (≈ 0.158 µM); in the test with Staphylococcus aureus [5], 16 µg/mL (≈ 20.3 µM). Moreover, the MIC with Streptococcus pneumoniae was 0.5 µg/mL (≈ 0.634 µM); in the test with Staphylococcus aureus [6], more than 64 µg/mL; with Staphylococcus aureus [7], 0.25 µg/mL (≈ 0.317 µM); with Staphylococcus aureus [8], 16 µg/mL (≈ 20.3 µM).
With `CC[C@H]1OC(=O)[C@H](C)[C@@H](O[C@H]2C[C@@](C)(OC)[C@@H](O)[C@H](C)O2)[C@H](C)[C@@H](O[C@@H]2O[C@H](C)C[C@H](N(C)C)[C@H]2O)[C@](C)(OC)C[C@@H](C)C(=O)[C@H](C)[C@@H](O)[C@]1(C)O` [CLARITHROMYCIN], the MIC in test [1] is 8 µg/mL (≈ 10.7 µM); with Staphylococcus aureus [2] it was 16 µg/mL (≈ 21.4 µM); in the test with Streptococcus pyogenes, 0.25 µg/mL (≈ 0.334 µM); in the test on Staphylococcus aureus [3] it was 0.5 µg/mL (≈ 0.668 µM); in the test on Staphylococcus aureus [4], 0.25 µg/mL (≈ 0.334 µM); with Staphylococcus aureus [5], 1 µg/mL (≈ 1.34 µM). The MIC in the test on Streptococcus pneumoniae was found to be 0.125 µg/mL (≈ 0.167 µM); in the test with Staphylococcus aureus [6], 16 µg/mL (≈ 21.4 µM); in the test with Staphylococcus aureus [7], 0.5 µg/mL (≈ 0.668 µM); with Staphylococcus aureus [8], 0.5 µg/mL (≈ 0.668 µM).
On to `CC(=O)NC[C@H]1CN(c2ccc(N3CCOCC3)c(F)c2)C(=O)O1` [LINEZOLID], for which the MIC in [1] is 8 µg/mL (≈ 23.7 µM); in the test on Staphylococcus aureus [2], 8 µg/mL (≈ 23.7 µM); in the test on Streptococcus pyogenes it was 0.125 µg/mL (≈ 0.371 µM); in the test on Staphylococcus aureus [3], 0.5 µg/mL (≈ 1.48 µM); in the test on Staphylococcus aureus [4], 0.5 µg/mL (≈ 1.48 µM); in the test with Staphylococcus aureus [5], 1 µg/mL (≈ 2.96 µM). Also, the MIC in the test with Streptococcus pneumoniae was determined as 0.125 µg/mL (≈ 0.371 µM); in the test on Staphylococcus aureus [6], 8 µg/mL (≈ 23.7 µM); in the test on Staphylococcus aureus [7], 0.5 µg/mL (≈ 1.48 µM); with Staphylococcus aureus [8] it was 0.5 µg/mL (≈ 1.48 µM).
